Assays:
[1] = Water solubility at neutral pH; assay type: physicochemical; details: inferred from pKa
Source text: Rudnic et al. point out that short chain fatty acids are ionized at neutral pH, giving them a […] solubility, and imply that long chain fatty acids are not ionized and, thus, are even less soluble in water. […] Further, medium to long chain (C8 to C22) fatty acids have very limited water solubility; when mixing with water these fatty acids tend to separate from water completely just as oil or fat do.

[2] = measured to be as high as (Kanicky, 2002); cited from earlier work

- water solubility [1]: essentially water insoluble
SMILES: CCCCCCCC/C=C\CCCCCCCC(=O)O [oleic acid]
- pKa [2]: ≤ 9.85

Reference: US20090196861A1, “Biocompatible Latent Emulsifiers” (BIOAVAILABILITY, INC., priority 2005, published 2009)
